Data from PubChem BioAssay AID1918945 (Molecular Pharmacology Branch, DTP, NCI, 2023).

Test system: 883617-216-R-J1-PDC complex spheroid viability
Test: Anticancer human tumor 883617-216-R-J1-PDC patient-derived bladder carcinoma cell line growth inhibition
Settings: for IC50: curve of first compound; for viability, T/C: stronger effect = lower value
In short: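 Multicellular complex spheroids of tumor cells with human endothelial cells (HUVEC) and mesenchymal stem cells; the LSD1 inhibitor iadademstat was combined with standard-of-care or investigational agents. Top concentration at or near clinical Cmax, half-log dilutions; final DMSO ≤0.25%.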

[1] = second compound 0.1 µM, first compound 0.000316 µM
[2] = second compound 0.1 µM, first compound 0.001 µM
[3] = second compound 0.1 µM, first compound 0.00316 µM
[4] = second compound 0.1 µM, first compound 0.01 µM
[5] = second compound 0.1 µM, first compound 0.0316 µM
[6] = second compound 0.1 µM, first compound 0.1 µM
[7] = second compound 0.316 µM, first compound 0.000316 µM
[8] = second compound 0.316 µM, first compound 0.001 µM
[9] = second compound 0.316 µM, first compound 0.00316 µM
[10] = second compound 0.316 µM, first compound 0.01 µM
[11] = second compound 0.316 µM, first compound 0.0316 µM
[12] = second compound 0.316 µM, first compound 0.1 µM
[13] = second compound 1 µM, first compound 0.000316 µM
[14] = second compound 1 µM, first compound 0.001 µM
[15] = second compound 1 µM, first compound 0.00316 µM
[16] = second compound 1 µM, first compound 0.01 µM
[17] = second compound 1 µM, first compound 0.0316 µM
[18] = second compound 1 µM, first compound 0.1 µM
[19] = second compound 3.16 µM, first compound 0.000316 µM
[20] = second compound 3.16 µM, first compound 0.001 µM
[21] = second compound 3.16 µM, first compound 0.00316 µM
[22] = second compound 3.16 µM, first compound 0.01 µM
[23] = second compound 3.16 µM, first compound 0.0316 µM
[24] = second compound 3.16 µM, first compound 0.1 µM
[25] = second compound 10 µM, first compound 0.000316 µM
[26] = second compound 10 µM, first compound 0.001 µM
[27] = second compound 10 µM, first compound 0.00316 µM
[28] = second compound 10 µM, first compound 0.01 µM
[29] = second compound 10 µM, first compound 0.0316 µM
[30] = second compound 10 µM, first compound 0.1 µM
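Further: exposure lasted seven days after three days of spheroid growth.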
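Wherever viability, T/C is given: 100% = DMSO vehicle control luminescence.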

Row | Compound | IC50 (second compound 0.1 µM) [nM] | IC50 (second compound 0.316 µM) [nM] | IC50 (second compound 1 µM) [nM] | IC50 (second compound 3.16 µM) [nM] | IC50 (second compound 10 µM) [nM] | viability, T/C [3] [%] | viability, T/C [4] [%] | viability, T/C [5] [%] | viability, T/C [6] [%] | viability, T/C [9] [%] | viability, T/C [10] [%] | viability, T/C [11] [%] | viability, T/C [12] [%] | viability, T/C [15] [%] | viability, T/C [16] [%] | viability, T/C [17] [%] | viability, T/C [18] [%] | viability, T/C [21] [%] | viability, T/C [22] [%] | viability, T/C [23] [%] | also measured
1 | CC(C)CC(NC(=O)C(Cc1ccccc1)NC(=O)c1cnccn1)B(O)O (stereo not given) + NC1CC1c1ccc(-c2cccc(O)c2)cc1 | 0.874 | 0.885 | 0.949 | 0.798 | 0.581 | 0.61 | 0.03 | 0.03 | 0.12 | 0.43 | 0.02 | 0.02 | 0.12 | 0.86 | 0.02 | 0.02 | 0.56 | 1.57 | 0.04 | 0.04 | viability, T/C [1]: 104%; viability, T/C [2]: 42.8%; viability, T/C [7]: 108%; viability, T/C [8]: 43.1%; viability, T/C [13]: 124%; viability, T/C [14]: 46.5%; viability, T/C [19]: 108%; viability, T/C [20]: 35.9%; viability, T/C [24]: 0.3%; viability, T/C [25]: 82.5%; viability, T/C [26]: 21%; viability, T/C [27]: 0.27%; viability, T/C [28]: 0.21%; viability, T/C [29]: 0.61%; viability, T/C [30]: 0.22%
2 | CC(C)CC(NC(=O)CNC(=O)c1cc(Cl)ccc1Cl)B1OC(=O)CC(CC(=O)O)(C(=O)O)O1 (stereo not given) + NC1CC1c1ccc(-c2cccc(O)c2)cc1 | 3.66 | 3.45 | 2.66 | 2.61 | 1.86 | 49.6 | 21.4 | 0.86 | 0.21 | 50.4 | 18 | 1 | 0.16 | 39.5 | 18.4 | 0.85 | 0.15 | 37.4 | 19.5 | 0.76 | viability, T/C [1]: 95.3%; viability, T/C [2]: 97.8%; viability, T/C [7]: 123%; viability, T/C [8]: 121%; viability, T/C [13]: 105%; viability, T/C [14]: 108%; viability, T/C [19]: 97.7%; viability, T/C [20]: 93.3%; viability, T/C [24]: 0.15%; viability, T/C [25]: 81.1%; viability, T/C [26]: 69.3%; viability, T/C [27]: 33.2%; viability, T/C [28]: 10.2%; viability, T/C [29]: 0.25%; viability, T/C [30]: 0.36%
3 | COc1cc(Nc2ncc3c(n2)-c2ccc(Cl)cc2C(c2c(F)cccc2OC)=NC3)ccc1C(=O)O + NC1CC1c1ccc(-c2cccc(O)c2)cc1 | 30.4 | 30.5 | 20.6 | 18.8 | 16.9 | 92.4 | 76.6 | 48.8 | 37.8 | 109 | 67.8 | 52.6 | 37.6 | 106 | 60.9 | 43.2 | 39.7 | 81.8 | 63.1 | 38.8 | viability, T/C (second compound 0.1 µM, first compound 0.316 µM): 37.3%; viability, T/C (second compound 0.1 µM, first compound 1 µM): 33.4%; viability, T/C (second compound 0.316 µM, first compound 0.316 µM): 36.7%; viability, T/C (second compound 0.316 µM, first compound 1 µM): 36%; viability, T/C (second compound 1 µM, first compound 0.316 µM): 34.5%; viability, T/C (second compound 1 µM, first compound 1 µM): 36.5%; viability, T/C [24]: 37.2%; viability, T/C (second compound 3.16 µM, first compound 0.316 µM): 36.6%; viability, T/C (second compound 3.16 µM, first compound 1 µM): 31.5%; viability, T/C [27]: 72.7%; viability, T/C [28]: 54.7%; viability, T/C [29]: 46.3%; viability, T/C [30]: 31.6%; viability, T/C (second compound 10 µM, first compound 0.316 µM): 35.1%; viability, T/C (second compound 10 µM, first compound 1 µM): 32.6%
